# Data from ChEMBL document CHEMBL6096689, “Structure-Guided Development of ClpP Agonists with Potent Therapeutic Activities against Staphylococcus aureus Infection” (J Med Chem, 2025).
# The source made the active and inactive calls. The rule behind the calls is not given here.
# Key:
# [1] = biological target: T1, ATP-dependent Clp protease proteolytic subunit (Staphylococcus aureus (strain NCTC 8325)) (UniProt Q2G036); test: Induction of thermal stabilization of CLpP in Staphylococcus aureus Newman at 10 times of MIC preincubated for 2 hrs followed by compound washout and incubated under 57.3 to 74.5 degreeC for 3 mins by CETSA
# T1 sequence (whole entry): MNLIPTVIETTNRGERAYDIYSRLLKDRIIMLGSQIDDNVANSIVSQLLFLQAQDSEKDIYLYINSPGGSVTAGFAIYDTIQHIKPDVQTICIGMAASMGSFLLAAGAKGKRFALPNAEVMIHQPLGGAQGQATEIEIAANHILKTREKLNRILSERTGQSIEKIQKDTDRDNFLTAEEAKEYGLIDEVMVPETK
# Staphylococcus aureus [2] = test: microbe, parasite or virus in culture; format: functional; conditions: Newman, time 18 hrs
# Description: Antibacterial activity against Staphylococcus aureus Newman assessed as inhibition of visible growth of bacteria incubated for 18 hrs by absorbance based analysis
# Staphylococcus aureus [3] = test: microbe, parasite or virus in culture; format: functional; conditions: NRS-271, time 18 hrs
# Description: Antibacterial activity against methicillin-resistant Staphylococcus aureus NRS-271 assessed as inhibition of visible growth of bacteria incubated for 18 hrs by absorbance based analysis
# Staphylococcus aureus [4] = test: Antibacterial activity against Staphylococcus aureus USA300 infected in Zebrafish infection model assessed as increase in zebrafish survival at 0.5 mg/kg pre-infected for 1 hrs followed by compound addition and measured after 5 days; format: functional, organism-based; conditions: time 5.0 day
# Staphylococcus aureus [5] = test: Antibacterial activity against Staphylococcus aureus USA300 infected in Zebrafish infection model assessed as increase in zebrafish survival at 25 mg/kg pre-infected for 1 hrs followed by compound addition and measured after 5 days; format: functional, organism-based; conditions: time 5.0 day
# [6] = Toxicity in female ICR mouse model of peritonitis infected with oxacillin-resistant Staphylococcus aureus clinical isolate XJ049 assessed as effect on body weight at 50 mg/kg, ip pre-infected for 1 hrs followed by compound addition and measured after 5 days; format: organism-based; conditions: in vivo, 120 h, time 5 day
# [7] = Therapeutic index, ratio of IC50 for HK-2 cells to MIC for Staphylococcus aureus Newman; format: toxicity, cell-based; conditions: human, read-out: TI
# Staphylococcus aureus [8] = test: Antibacterial activity against CLpP overexpressing Staphylococcus aureus 8325-4 assessed as inhibition of visible growth of bacteria incubated for 18 hrs by absorbance based assay; format: functional, organism-based
# Staphylococcus aureus [9] = test: microbe, parasite or virus in culture; format: functional; conditions: time 18 hrs
# Description: Antibacterial activity against multidrug-resistant Staphylococcus aureus clinical isolate XJ051 assessed as inhibition of visible growth of bacteria incubated for 18 hrs by absorbance based analysis
# Staphylococcus aureus [10] = test: microbe, parasite or virus in culture; format: functional; conditions: NRS-1, time 18 hrs
# Description: Antibacterial activity against methicillin-resistant Staphylococcus aureus NRS-1 assessed as inhibition of visible growth of bacteria incubated for 18 hrs by absorbance based analysis
# Staphylococcus aureus [11] = test: microbe, parasite or virus in culture; format: functional; conditions: NRS-108, time 18 hrs
# Description: Antibacterial activity against methicillin-resistant Staphylococcus aureus NRS-108 assessed as inhibition of visible growth of bacteria incubated for 18 hrs by absorbance based analysis
# [12] = biological target: T2, Cell division protein FtsZ (Staphylococcus aureus) (UniProt P0A031); test: Induction of FtsZ degradation in Staphylococcus aureus 8325-4 incubated for 3 hrs by Western blot analysis; conditions: dose 1.25-10 µM
# T2 sequence (whole entry): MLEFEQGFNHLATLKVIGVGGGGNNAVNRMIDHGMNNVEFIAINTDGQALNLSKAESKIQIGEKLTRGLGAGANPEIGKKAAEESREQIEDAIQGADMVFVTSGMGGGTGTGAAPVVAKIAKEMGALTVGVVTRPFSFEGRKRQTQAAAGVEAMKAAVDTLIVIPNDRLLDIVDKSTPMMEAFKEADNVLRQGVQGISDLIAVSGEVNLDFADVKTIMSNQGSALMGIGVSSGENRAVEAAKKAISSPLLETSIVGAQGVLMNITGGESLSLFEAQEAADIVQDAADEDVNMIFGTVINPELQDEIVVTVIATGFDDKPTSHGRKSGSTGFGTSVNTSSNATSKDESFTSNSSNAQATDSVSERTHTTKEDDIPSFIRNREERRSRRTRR
compound,measurement,setting,value
CC[C@H](C)[C@H]1C(=O)N(Cc2ccc(OC)c3ccccc23)C[C@@H]2N(C(=O)NCCCC(F)(F)F)CCC(=O)N12,Activity,[1],Active
same,MIC,Staphylococcus aureus [2],0.063 µg/mL
same,MIC,Staphylococcus aureus [3],0.06 µg/mL
same,Activity,Staphylococcus aureus [4],Active; Significant Improvement Observed Compared To 0.5 Mg/Kg Of Vancomycin
same,Activity,Staphylococcus aureus [5],Active
same,Activity,[6],Non-toxic
same,selectivity ratio,[7],180
same,Activity,Staphylococcus aureus [8],Active
same,MIC,Staphylococcus aureus [9],0.03 µg/mL
same,MIC,Staphylococcus aureus [10],0.13 µg/mL
same,MIC,Staphylococcus aureus [11],0.06 µg/mL
same,Activity,[12],Dose-dependent-effect
